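Values below derive from 48-hour exposures of cells grown in 96-well plates, with endpoints linearly interpolated between the two concentrations bracketing the appropriate inhibition level. Abbreviation: GI50, concentration required for 50% inhibition of growth.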 Activity calls are given as the source filed them. No stated cut-off is given here; in the data, active = GI50 up to about 1.1 µM and inactive = higher.
Experiments:
Assay in all cases: NCI tumour cell line growth inhibition, 48 h
[1] = test system: ACHN
[2] = test system: BT-549
[3] = test system: HCT-15
[4] = test system: HOP-62
[5] = test system: HT-29
[6] = test system: Hs-578T
[7] = test system: KM12
[8] = test system: Malme-3M
[9] = test system: NCI-H23
[10] = test system: OVCAR-4
[11] = test system: OVCAR-5
[12] = test system: RXF 393
[13] = test system: SF-268
[14] = test system: SF-539
[15] = test system: SK-MEL-5
[16] = test system: SN12C
[17] = test system: SNB-75
[18] = test system: T47D
[19] = test system: U-251
[20] = test system: UACC-257

O=[N+]([O-])c1ccc2nc(O)c(/C=C(\O)c3ccccc3)nc2c1
GI50 [1]: 26.4 µM (inactive)
GI50 [2]: 76.7 µM (inactive)
GI50 [3]: 11.5 µM
GI50 [4]: 5.52 µM (inactive)
GI50 [5]: > 100 µM (inactive)
GI50 [6]: 2.23 µM (inactive)
GI50 [7]: 4.81 µM (inactive)
GI50 [8]: 55.8 µM (inactive)
GI50 [9]: 17.2 µM (inactive)
GI50 [10]: 2.86 µM (inactive)
GI50 [11]: > 100 µM (inactive)
GI50 [12]: 20.6 µM (inactive)
GI50 [13]: 13.9 µM (inactive)
GI50 [14]: 15.3 µM (inactive)
GI50 [15]: 98.2 µM (inactive)
GI50 [16]: 12.2 µM (inactive)
GI50 [17]: 16 µM (inactive)
GI50 [18]: 61.7 µM (inactive)
GI50 [19]: 5.42 µM (inactive)
GI50 [20]: > 100 µM (inactive)

O=C(O)C1C(C(=O)O)C(C(=O)O)C1C(=O)O (stereo not given)
GI50 [1]: > 100 µM (inactive)
GI50 [2]: > 100 µM (inactive)
GI50 [3]: > 100 µM
GI50 [4]: > 100 µM (inactive)
GI50 [5]: > 100 µM (inactive)
GI50 [6]: > 100 µM (inactive)
GI50 [7]: > 100 µM (inactive)
GI50 [8]: > 100 µM (inactive)
GI50 [9]: > 100 µM (inactive)
GI50 [10]: > 100 µM (inactive)
GI50 [11]: > 100 µM (inactive)
GI50 [12]: > 100 µM (inactive)
GI50 [13]: > 100 µM (inactive)
GI50 [14]: > 100 µM (inactive)
GI50 [15]: > 100 µM (inactive)
GI50 [16]: > 100 µM (inactive)
GI50 [17]: > 100 µM (inactive)
GI50 [18]: > 100 µM (inactive)
GI50 [19]: > 100 µM (inactive)
GI50 [20]: > 100 µM (inactive)

CN(C)CCNC(=O)C(C)(C)Oc1ccc(C(=O)c2ccc(Cl)cc2)cc1Cl
GI50 [1]: 11 µM (inactive)
GI50 [2]: 11.5 µM (inactive)
GI50 [3]: 3.3 µM
GI50 [4]: 11.5 µM (inactive)
GI50 [5]: 2.56 µM (inactive)
GI50 [6]: 6.14 µM (inactive)
GI50 [7]: 8.93 µM (inactive)
GI50 [8]: 5.01 µM (inactive)
GI50 [9]: 9.86 µM (inactive)
GI50 [10]: 14.5 µM (inactive)
GI50 [11]: 15.1 µM (inactive)
GI50 [12]: 7.52 µM (inactive)
GI50 [13]: 13.7 µM (inactive)
GI50 [14]: 9.46 µM (inactive)
GI50 [15]: 2.25 µM (inactive)
GI50 [16]: 13.4 µM (inactive)
GI50 [17]: 11.5 µM (inactive)
GI50 [18]: 10.4 µM (inactive)
GI50 [19]: 7.05 µM (inactive)
GI50 [20]: 2 µM (inactive)

COc1ccc(/N=C2\C(=S)N(c3ccc(OC)cc3)/C(=N/S(=O)(=O)c3ccccc3)N2c2ccccc2)cc1
GI50 [1]: 8.85 µM (inactive)
GI50 [2]: 4.94 µM (inactive)
GI50 [3]: 5.75 µM
GI50 [4]: > 35.3 µM (inactive)
GI50 [5]: 19.9 µM (inactive)
GI50 [6]: 17.9 µM (inactive)
GI50 [7]: 13.2 µM (inactive)
GI50 [8]: 15.1 µM (inactive)
GI50 [9]: 10.2 µM (inactive)
GI50 [10]: 9.25 µM (inactive)
GI50 [11]: 17.3 µM (inactive)
GI50 [12]: 5.22 µM (inactive)
GI50 [13]: 8.87 µM (inactive)
GI50 [14]: 9.12 µM (inactive)
GI50 [15]: 4.57 µM (inactive)
GI50 [16]: 15.1 µM (inactive)
GI50 [17]: 17.3 µM (inactive)
GI50 [18]: 1.09 µM (active)
GI50 [19]: 8.53 µM (inactive)
GI50 [20]: 13 µM (inactive)

Reference: ChEMBL document CHEMBL1201862, “PubChem BioAssay data set” (2004)
